Values of other authors in patent US8685425B2, “Microencapsulation product and process” (priority 2004, dated 2014).

solubility of DEET in water: around 1%
SMILES: CCN(CC)C(=O)c1cccc(C)c1 [DEET, N,N-diethyl-m-toluamide]
